In brackets after ≈: the same amount, converted by molar mass.
Test system: SAUR 9218
Assay: MIC Test Method, standard agar dilution
Format: cell-based
Conditions: agar dilution, Mueller Hinton agar, incubated overnight at 35° C., lowest concentration that inhibits visible growth; for MIC: read-out: SAUR 9218 MIC
How it was run: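 MIC (μg/ml) was read as the lowest drug level without visible growth of SAUR 9218 after overnight incubation at 35 °C. Inocula of about 10^4 to 10^5 cells per spot were applied to Mueller Hinton agar containing 2-fold serial compound dilutions.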

SMILES | MIC [µg/mL] | SAUR 9218 MIC [µg/mL]
CCCCC(=O)Nc1cccc2cc(C(=O)Nc3ccc(C#N)cc3C(=O)O)[nH]c12 | 0.5 (≈ 1.24 µM) | 
O=C(Nc1ccc(Br)cc1C(=O)O)c1ncc(-c2ccc3c(c2)OCO3)o1 | 2 (≈ 4.64 µM) | 
N#Cc1ccc(NC(=O)c2noc3c2CCc2ccccc2-3)c(C(=O)O)c1 | 0.06 (≈ 0.167 µM) | 
N#Cc1ccc(NC(=O)c2cc3cccc(S(=O)(=O)c4ccccc4)c3[nH]2)c(C(=O)O)c1 | 0.125 (≈ 0.281 µM) | 
Cc1ccc(CC(=O)Nc2cccc3cc(C(=O)Nc4ccc(C#N)cc4C(=O)O)[nH]c23)cc1 | 0.5 (≈ 1.11 µM) | 
Cc1noc(C)c1-c1ccc2cc(C(=O)Nc3ccc(C#N)cc3C(=O)O)n(C)c2c1 | 1 (≈ 2.41 µM) | 
Cc1noc(C)c1S(=O)(=O)Nc1cccc2cc(C(=O)Nc3ccc(C#N)cc3C(=O)O)n(C)c12 | 0.25 (≈ 0.507 µM) | 
Cn1c(C(=O)Nc2ccc(C#N)cc2C(=O)O)cc2cccc(Br)c21 | 0.5 (≈ 1.26 µM) | 
O=C(Nc1ccc(Br)cc1-c1noc(=O)[nH]1)c1cc(-c2ccccc2)on1 | 1 (≈ 2.34 µM) | 
O=C(Nc1ccc(Br)cc1C(=O)O)c1ccc(SC2CCOCC2)nc1 | 1 (≈ 2.29 µM) | 
CCCCCSc1ccc(C(=O)Nc2ccc(Br)cc2C(=O)O)nn1 | 0.03 (≈ 0.0707 µM) | 
Cc1c(C(=O)Cc2cncc(C(=O)Nc3ccc(C#N)cc3C(=O)O)c2)c(=O)n(-c2ccccc2)n1C | 32 (≈ 64.6 µM) | 
N#Cc1ccc(NC(=O)c2cc3cccc(NC(=O)CCC4CCCC4)c3[nH]2)c(C(=O)O)c1 | 0.25 (≈ 0.562 µM) | 
CCOC(=O)CCSc1ccc(C(=O)Nc2ccc(C#N)cc2C(=O)O)cn1 | 1 (≈ 2.5 µM) | 
O=C(O)c1cc(Br)ccc1NC(=O)c1noc2cc(Cl)ccc12 | 1 (≈ 2.53 µM) | 
Cn1c(C(=O)Nc2ccc(C#N)cc2C(=O)O)cc2cccc(OCC3CC3)c21 | 0.125 (≈ 0.321 µM) | 
N#Cc1ccc(NC(=O)c2cc3cccc(NC(=O)C4CCOC4)c3[nH]2)c(C(=O)O)c1 (stereo not drawn) | 2 (≈ 4.78 µM) | 
Cc1sc(C(=O)Nc2ccc(C#N)cc2C(=O)O)cc1S(=O)(=O)N1CCc2ccccc2C1 | 4 (≈ 8.31 µM) | 
Cc1ccsc1C(=O)Nc1ccc(C#N)cc1C(=O)O | 1 (≈ 3.49 µM) | 
CCN(CC)C(=O)C1CCCN(S(=O)(=O)c2cc(C(=O)Nc3ccc(C#N)cc3C(=O)O)sc2C)C1 (stereo not drawn) | 64 (≈ 120 µM) | 
O=C(Nc1ccc(Br)cc1C(=O)O)c1ccc2c(c1)C(=O)N(CC1CCCO1)C2=O (stereo not drawn) | 8 (≈ 16.9 µM) | 
CCCCCC(=O)Nc1cccc2cc(C(=O)Nc3ccc(C#N)cc3C(=O)O)[nH]c12 | 0.5 (≈ 1.19 µM) | 
N#Cc1ccc(NC(=O)c2cc3cccc(NC(=O)Cc4ccc(C(F)(F)F)cc4)c3[nH]2)c(C(=O)O)c1 | 0.5 (≈ 0.987 µM) | 
O=C(Nc1ccc(Br)cc1C(=O)O)c1ccc(-c2ccc(Cl)cc2)o1 | 32 (≈ 76.1 µM) | 

SMILES | MIC [µg/mL] | SAUR 9218 MIC [µg/mL]
N#Cc1ccc(NC(=O)C2=NOC(c3ccccc3)C2)c(C(=O)O)c1 (stereo not drawn) | 4 (≈ 11.9 µM) | 
O=C(Nc1ccc(I)cc1C(=O)O)c1cnc(Cl)cn1 | 128 (≈ 317 µM) | 
Cn1c(C(=O)Nc2ccc(C#N)cc2C(=O)O)cc2ccc(OCc3ccccc3)cc21 | 0.125 (≈ 0.294 µM) | 
N#Cc1ccc(NC(=O)c2cncc(C#Cc3ccccc3)c2)c(C(=O)O)c1 | 4 (≈ 10.9 µM) | 
N#Cc1ccc(NC(=O)c2cc3cccc(NC(=O)c4ccc(-c5ccccc5)cc4)c3[nH]2)c(C(=O)O)c1 | 0.5 (≈ 0.999 µM) | 
Cn1c(C(=O)Nc2ccc(C#N)cc2C(=O)O)cc2cccc(-c3ccc(S(C)(=O)=O)cc3)c21 | 8 (≈ 16.9 µM) | 
N#Cc1ccc(NC(=O)c2nc3ccccc3[nH]2)c(C(=O)O)c1 | 4 (≈ 13.1 µM) | 
CC(C)OCC(O)COc1cccc2cc(C(=O)Nc3ccc(C#N)cc3C(=O)O)n(C)c12 (stereo not drawn) | 0.25 (≈ 0.554 µM) | 
N#Cc1ccc(NC(=O)c2ccc3c(c2)S(=O)(=O)N(c2ccc(Cl)cc2)CC3)c(C(=O)O)c1 | 0.25 (≈ 0.519 µM) | 
O=C(O)c1cc(Br)ccc1NC(=O)c1c[nH]c2ccccc12 | 4 (≈ 11.1 µM) | 
Cn1c(C(=O)Nc2ccc(C#N)cc2C(=O)O)cc2cccc(OCCCOc3ccccc3)c21 | 0.125 (≈ 0.266 µM) | 
N#Cc1ccc(NC(=O)c2cc3cccc(NC(=O)COc4ccc5ccccc5c4)c3[nH]2)c(C(=O)O)c1 | 0.25 (≈ 0.496 µM) | 
O=C(Nc1ccc(Cl)cc1C(=O)O)c1cc(-c2ccc(C(F)(F)F)cc2)on1 | 0.5 (≈ 1.22 µM) | 
CCN(CC)CCN(CC)S(=O)(=O)c1cc(C(=O)Nc2ccc(C#N)cc2C(=O)O)sc1C | 128 (≈ 260 µM) | 
N#Cc1ccc(NC(=O)c2cncc(-c3ccccn3)c2)c(C(=O)O)c1 | > 128 | 
N#Cc1ccc(NC(=O)c2cc3cccc(NC(=O)CCCc4ccccc4)c3[nH]2)c(C(=O)O)c1 | 0.5 (≈ 1.07 µM) | 
N#Cc1ccc(NC(=O)c2cc3cccc(NC(=O)Cc4cccs4)c3[nH]2)c(C(=O)O)c1 | 0.5 (≈ 1.12 µM) | 
C=CCN(C1CCCC1)S(=O)(=O)c1cc(C(=O)Nc2ccc(C#N)cc2C(=O)O)sc1C | 8 (≈ 16.9 µM) | 
CN(c1ccc(Cl)cc1)S(=O)(=O)c1cc(C(=O)Nc2ccc(Br)cc2C(=O)O)cs1 [drawing 825] |  | 2
CCCCCCSc1ccc(C(=O)Nc2ccc(C#N)cc2C(=O)O)nc1 | 0.125 (≈ 0.326 µM) | 
CN(c1ccc(Cl)cc1)S(=O)(=O)c1cncc(C(=O)Nc2ccc(Br)cc2C(=O)O)c1 | 1 (≈ 1.91 µM) | 
CC(C)(C)CC(=O)Nc1cccc2cc(C(=O)Nc3ccc(C#N)cc3C(=O)O)[nH]c12 | 2 (≈ 4.78 µM) | 
Cc1c(S(=O)(=O)NCCCn2ccnc2)csc1C(=O)Nc1ccc(Br)cc1C(=O)O | > 128 | 
Cc1noc(C)c1CSc1ccc(C(=O)Nc2ccc(C#N)cc2C(=O)O)cn1 | 0.5 (≈ 1.22 µM) | 

SMILES | MIC [µg/mL] | SAUR 9218 MIC [µg/mL]
COc1ccc2[nH]c(C(=O)Nc3ccc(C#N)cc3C(=O)O)cc2c1 | 128 (≈ 382 µM) | 
O=C(O)c1cc(Br)ccc1NC(=O)c1noc2ccc(S(=O)(=O)N3CCOCC3)cc12 | 0.5 (≈ 0.98 µM) | 
Cc1sc(C(=O)Nc2ccc(C#N)cc2C(=O)O)cc1S(=O)(=O)N(CC(C)C)CC(C)C | 32 (≈ 67 µM) | 
CC(Sc1ccc(C(=O)Nc2ccc(C#N)cc2C(=O)O)cn1)c1ccccc1 (stereo not drawn) | 0.25 (≈ 0.62 µM) | 
N#Cc1ccc(NC(=O)c2cc(-c3ccccc3)nc3ccccc23)c(C(=O)O)c1 | 16 (≈ 40.7 µM) | 
Cc1ccccc1-c1ccc2cc(C(=O)Nc3ccc(C#N)cc3C(=O)O)n(C)c2c1 | 0.5 (≈ 1.22 µM) | 
COc1ccc(C(=O)Nc2ccc(C#N)cc2C(=O)O)c(OC)n1 | > 128 | 
O=C(Nc1ccc(Cl)cc1C(=O)O)c1cc(CCCC2CCCCC2)on1 | 4 (≈ 10.2 µM) | 
CCCCCCCCCSc1ccc(C(=O)Nc2ccc(C#N)cc2C(=O)O)cn1 | 1 (≈ 2.35 µM) | 
N#Cc1ccc(NC(=O)c2cc3cccc(NC(=O)C4CCCC4)c3[nH]2)c(C(=O)O)c1 | 2 (≈ 4.8 µM) | 
Cc1ccccc1-c1cccc2cc(C(=O)Nc3ccc(C#N)cc3C(=O)O)n(C)c12 | 0.125 (≈ 0.305 µM) | 
Cn1c(C(=O)Nc2ccc(C#N)cc2C(=O)O)cc2cccc(-c3ccccc3F)c21 | 0.25 (≈ 0.605 µM) | 
O=C(O)c1cc(Br)ccc1NC(=O)c1cc(SCc2ccccc2)cc[n+]1[O-] | 8 (≈ 17.4 µM) | 
CCC(CC)Sc1ccc(C(=O)Nc2ccc(C#N)cc2C(=O)O)cn1 | 0.25 (≈ 0.677 µM) | 
CNC(=O)Nc1ccc2cc(C(=O)Nc3ccc(C#N)cc3C(=O)O)n(C)c2c1 | 2 (≈ 5.11 µM) | 
COCC(=O)Nc1ccc2cc(C(=O)Nc3ccc(C#N)cc3C(=O)O)n(C)c2c1 | 2 (≈ 4.92 µM) | 
CN(c1ccc(Cl)cc1)S(=O)(=O)c1csc(C(=O)Nc2ccc(Br)cc2C(=O)O)c1 | 8 (≈ 15.1 µM) | 
O=C(Nc1ccc(Br)cc1C(=O)O)c1ccco1 | > 128 | 
Cn1c(C(=O)Nc2ccc(C#N)cc2C(=O)O)cc2cccc(OCc3ccccc3)c21 | 0.125 (≈ 0.294 µM) | 
COc1ccc(C(=O)Nc2ccc(C#N)cc2C(=O)O)cn1 | 8 (≈ 26.9 µM) | 
N#Cc1ccc(NC(=O)c2cc(-c3ccccc3F)on2)c(C(=O)O)c1 | 0.125 (≈ 0.356 µM) | 
Cn1c(C(=O)Nc2ccc(C#N)cc2C(=O)O)cc2ccc(OCC3CC3)cc21 | 0.25 (≈ 0.642 µM) | 
N#Cc1ccc(NC(=O)c2cc(-c3ccccc3OCCCCCCl)on2)c(C(=O)O)c1 | 0.125 (≈ 0.275 µM) | 
O=C(Nc1ccc(Br)cc1C(=O)O)c1ccnc(SCc2ccccc2)c1 | 2 (≈ 4.51 µM) | 

Reference: patent US20040110802A1, “Antibacterial benzoic acid derivatives” (priority 2002, published 2004)
